Reference: ChEMBL document CHEMBL5055672, “Design, Synthesis, Biological Evaluation, and Computational Studies of Novel Fluorinated Candidates as PI3K Inhibitors: Targeting Fluorophilic Binding Sites” (J Med Chem, 2021)
pIC50: −log10 of the molar value.

Tests used:
[1] = tested on: CCRF-CEM; experiment: Cytotoxicity against human CCRF-CEM cells assessed as growth inhibition at 10 uM after 48 hrs by sulforhodamine B assay; type: functional; conditions: read-out: GI
[2] = tested on: HOP-62; experiment: Cytotoxicity against human HOP-62 cells assessed as growth inhibition at 10 uM after 48 hrs by sulforhodamine B assay; type: functional; conditions: read-out: GI
[3] = tested on: HOP-92; experiment: Cytotoxicity against human HOP-92 cells assessed as growth inhibition at 10 uM after 48 hrs by sulforhodamine B assay; type: functional; conditions: read-out: GI
[4] = tested on: NCI-H522; experiment: Cytotoxicity against human NCI-H522 cells assessed as growth inhibition at 10 uM after 48 hrs by sulforhodamine B assay; type: functional; conditions: read-out: GI
[5] = tested on: HCT-116; experiment: Cytotoxicity against human HCT-116 cells assessed as growth inhibition at 10 uM after 48 hrs by sulforhodamine B assay; type: functional; conditions: read-out: GI
[6] = tested on: SF-268; experiment: Cytotoxicity against human SF-268 cells assessed as growth inhibition at 10 uM after 48 hrs by sulforhodamine B assay; type: functional; conditions: read-out: GI
[7] = tested on: SF-295; experiment: Cytotoxicity against human SF-295 cells assessed as growth inhibition at 10 uM after 48 hrs by sulforhodamine B assay; type: functional; conditions: read-out: GI
[8] = tested on: SF-539; experiment: Cytotoxicity against human SF-539 cells assessed as growth inhibition at 10 uM after 48 hrs by sulforhodamine B assay; type: functional; conditions: read-out: GI
[9] = tested on: SNB-19; experiment: Cytotoxicity against human SNB-19 cells assessed as growth inhibition at 10 uM after 48 hrs by sulforhodamine B assay; type: functional; conditions: read-out: GI
[10] = tested on: SNB-75; experiment: Cytotoxicity against human SNB-75 cells assessed as growth inhibition at 10 uM after 48 hrs by sulforhodamine B assay; type: functional; conditions: read-out: GI
[11] = tested on: U-251; experiment: Cytotoxicity against human U-251 cells assessed as growth inhibition at 10 uM after 48 hrs by sulforhodamine B assay; type: functional; conditions: read-out: GI
[12] = tested on: SK-MEL-2; experiment: Cytotoxicity against human SK-MEL-2 cells assessed as growth inhibition at 10 uM after 48 hrs by sulforhodamine B assay; type: functional; conditions: read-out: GI
[13] = tested on: UACC-62; experiment: Cytotoxicity against human UACC-62 cells assessed as growth inhibition at 10 uM after 48 hrs by sulforhodamine B assay; type: functional; conditions: read-out: GI
[14] = tested on: SK-OV-3; experiment: Cytotoxicity against human SK-OV-3 cells assessed as growth inhibition at 10 uM after 48 hrs by sulforhodamine B assay; type: functional; conditions: read-out: GI
[15] = tested on: 786-0; experiment: Cytotoxicity against human 786-0 cells assessed as growth inhibition at 10 uM after 48 hrs by sulforhodamine B assay; type: functional; conditions: read-out: GI
[16] = tested on: A498; experiment: Cytotoxicity against human A498 cells assessed as growth inhibition at 10 uM after 48 hrs by sulforhodamine B assay; type: functional; conditions: read-out: GI
[17] = tested on: ACHN; experiment: Cytotoxicity against human ACHN cells assessed as growth inhibition at 10 uM after 48 hrs by sulforhodamine B assay; type: functional; conditions: read-out: GI
[18] = tested on: CAKI-1; experiment: Cytotoxicity against human CAKI-1 cells assessed as growth inhibition at 10 uM after 48 hrs by sulforhodamine B assay; type: functional; conditions: read-out: GI
[19] = tested on: RXF 393; experiment: Cytotoxicity against human RXF 393 cells assessed as growth inhibition at 10 uM after 48 hrs by sulforhodamine B assay; type: functional; conditions: read-out: GI
[20] = tested on: MCF7; experiment: Cytotoxicity against human MCF7 cells assessed as growth inhibition at 10 uM after 48 hrs by sulforhodamine B assay; type: functional; conditions: read-out: GI
[21] = tested on: MDA-MB-231; experiment: Cytotoxicity against human MDA-MB-231 cells assessed as growth inhibition at 10 uM after 48 hrs by sulforhodamine B assay; type: functional; conditions: read-out: GI
[22] = Cytotoxicity against human Hs 578T cells assessed as growth inhibition at 10 uM after 48 hrs by sulforhodamine B assay; type: functional; conditions: read-out: GI
[23] = tested on: MCF7; experiment: Antiproliferative activity against human MCF7 cells assessed as inhibition of cell growth incubated for 48 hrs by MTT assay; type: functional, cell-based; conditions: MCF7, 48 h
[24] = tested on: MCF-10A; experiment: Cytotoxicity against human MCF10A cells assessed as inhibition of cell growth incubated for 48 hrs by MTT assay; type: cell-based
[25] = Selectivity index, ratio of IC50 for human MCF-10A cells to IC50 for human MCF7 cells; type: toxicity; conditions: MCF-10A cells versus MCF7 cells, read-out: Ratio IC50
[26] = target: Phosphatidylinositol 4,5-bisphosphate 3-kinase catalytic subunit alpha isoform (Homo sapiens, UniProt P42336); experiment: Inhibition of PI3Kalpha (unknown origin) using PIP2 as substrate preincubated for 10 mins followed by substrate addition and measured after 1 hr by ELISA
Phosphatidylinositol 4,5-bisphosphate 3-kinase catalytic subunit alpha isoform, sequence (P42336 whole entry, canonical isoform): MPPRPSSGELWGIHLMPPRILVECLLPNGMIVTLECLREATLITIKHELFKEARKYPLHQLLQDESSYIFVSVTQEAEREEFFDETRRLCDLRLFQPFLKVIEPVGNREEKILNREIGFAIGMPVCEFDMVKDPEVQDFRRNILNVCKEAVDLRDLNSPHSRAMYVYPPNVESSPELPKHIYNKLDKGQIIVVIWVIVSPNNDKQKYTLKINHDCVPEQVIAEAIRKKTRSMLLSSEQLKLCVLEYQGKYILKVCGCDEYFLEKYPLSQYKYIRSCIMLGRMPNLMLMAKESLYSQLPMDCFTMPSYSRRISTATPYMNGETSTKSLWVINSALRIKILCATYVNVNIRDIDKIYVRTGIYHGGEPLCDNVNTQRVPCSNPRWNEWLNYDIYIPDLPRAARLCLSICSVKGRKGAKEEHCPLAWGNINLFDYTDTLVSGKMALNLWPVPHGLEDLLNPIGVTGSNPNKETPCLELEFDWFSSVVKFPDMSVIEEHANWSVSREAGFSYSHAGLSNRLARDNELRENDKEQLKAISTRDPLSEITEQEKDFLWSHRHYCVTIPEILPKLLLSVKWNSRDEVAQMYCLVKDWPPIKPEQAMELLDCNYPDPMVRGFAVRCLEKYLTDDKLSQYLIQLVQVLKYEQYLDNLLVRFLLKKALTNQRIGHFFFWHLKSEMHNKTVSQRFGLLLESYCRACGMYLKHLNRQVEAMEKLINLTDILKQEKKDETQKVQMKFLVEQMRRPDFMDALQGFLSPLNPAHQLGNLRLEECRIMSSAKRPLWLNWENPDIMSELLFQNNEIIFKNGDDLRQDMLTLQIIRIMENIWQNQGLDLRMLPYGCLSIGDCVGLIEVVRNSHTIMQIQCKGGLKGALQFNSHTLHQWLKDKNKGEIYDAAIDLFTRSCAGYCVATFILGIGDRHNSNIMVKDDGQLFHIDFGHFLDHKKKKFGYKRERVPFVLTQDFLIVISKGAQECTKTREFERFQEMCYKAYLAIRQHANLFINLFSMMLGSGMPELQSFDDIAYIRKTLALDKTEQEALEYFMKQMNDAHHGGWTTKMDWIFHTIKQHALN

[27] = tested on: MCF7; experiment: Induction of cell cycle arrest in human MCF7 cells assessed as accumulation of cells at G phase at IC50 concentration by Propidium iodide staining based flow cytometric analysis (reference value: 1.76%); type: functional
[28] = tested on: MCF7; experiment: Induction of cell cycle arrest in human MCF7 cells assessed as accumulation of cells at G1 phase at IC50 concentration by Propidium iodide staining based flow cytometric analysis (reference value: 61.45%); type: functional
[29] = tested on: MCF7; experiment: Induction of cell cycle arrest in human MCF7 cells assessed as accumulation of cells at G2/M phase at IC50 concentration by Propidium iodide staining based flow cytometric analysis (reference value: 10.94%); type: functional
[30] = tested on: MCF7; experiment: Induction of cell cycle arrest in human MCF7 cells assessed as accumulation of cells at S phase at IC50 concentration by Propidium iodide staining based flow cytometric analysis (reference value: 27.61%); type: functional
[31] = tested on: MCF7; experiment: Induction of apoptosis in human MCF7 cells assessed as early apoptotic cells at 0.72 uM after 48 hrs by annexin V-FITC/propidium iodide staining based flow cytometric analysis (reference value: 0.36%); type: functional
[32] = tested on: MCF7; experiment: Induction of apoptosis in human MCF7 cells assessed as late apoptotic cells at 0.72 uM after 48 hrs by annexin V-FITC/propidium iodide staining based flow cytometric analysis (reference value: 0.14%); type: functional
[33] = tested on: MCF7; experiment: Induction of apoptosis in human MCF7 cells assessed as necrotic cells at 0.72 uM after 48 hrs by annexin V-FITC/propidium iodide staining based flow cytometric analysis (reference value: 1.26%); type: functional
[34] = target: Phosphatidylinositol 4,5-bisphosphate 3-kinase catalytic subunit beta isoform (Homo sapiens, UniProt P42338); experiment: Inhibition of PI3Kbeta (unknown origin) using PIP2 as substrate preincubated for 10 mins followed by substrate addition and measured after 1 hr by ELISA
Phosphatidylinositol 4,5-bisphosphate 3-kinase catalytic subunit beta isoform, sequence (P42338 whole entry, canonical isoform): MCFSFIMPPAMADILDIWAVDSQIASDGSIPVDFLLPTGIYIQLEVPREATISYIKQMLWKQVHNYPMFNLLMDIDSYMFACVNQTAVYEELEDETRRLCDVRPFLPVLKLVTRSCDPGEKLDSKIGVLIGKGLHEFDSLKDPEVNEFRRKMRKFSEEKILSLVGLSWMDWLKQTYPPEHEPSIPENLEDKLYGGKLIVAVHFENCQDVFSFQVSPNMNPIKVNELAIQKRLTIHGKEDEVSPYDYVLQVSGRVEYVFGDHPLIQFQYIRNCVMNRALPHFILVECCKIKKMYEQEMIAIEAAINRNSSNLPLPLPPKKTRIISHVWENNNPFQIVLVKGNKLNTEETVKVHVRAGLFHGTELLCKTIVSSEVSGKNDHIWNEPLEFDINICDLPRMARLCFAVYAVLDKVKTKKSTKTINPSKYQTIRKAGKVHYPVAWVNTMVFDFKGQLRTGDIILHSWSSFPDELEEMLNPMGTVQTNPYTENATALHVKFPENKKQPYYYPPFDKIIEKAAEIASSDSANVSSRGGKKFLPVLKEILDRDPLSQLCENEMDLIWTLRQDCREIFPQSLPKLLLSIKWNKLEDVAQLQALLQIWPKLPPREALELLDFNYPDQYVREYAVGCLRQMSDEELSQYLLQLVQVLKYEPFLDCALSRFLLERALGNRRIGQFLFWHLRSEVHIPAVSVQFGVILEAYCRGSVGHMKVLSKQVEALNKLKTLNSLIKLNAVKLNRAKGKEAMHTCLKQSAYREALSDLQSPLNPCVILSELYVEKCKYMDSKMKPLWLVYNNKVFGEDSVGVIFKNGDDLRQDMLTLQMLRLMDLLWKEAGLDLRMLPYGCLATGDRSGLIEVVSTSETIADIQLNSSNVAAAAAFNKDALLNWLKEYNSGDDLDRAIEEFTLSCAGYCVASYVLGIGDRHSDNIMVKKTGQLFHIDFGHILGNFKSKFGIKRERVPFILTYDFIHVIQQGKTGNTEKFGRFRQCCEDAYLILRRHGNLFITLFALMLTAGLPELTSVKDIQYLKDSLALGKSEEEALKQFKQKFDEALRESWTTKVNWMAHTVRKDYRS

[35] = target: T1, Phosphatidylinositol 4,5-bisphosphate 3-kinase catalytic subunit delta isoform (Homo sapiens, UniProt O00329); experiment: Inhibition of PI3Kdelta (unknown origin) using PIP2 as substrate preincubated for 10 mins followed by substrate addition and measured after 1 hr by ELISA
T1 sequence (O00329 whole entry): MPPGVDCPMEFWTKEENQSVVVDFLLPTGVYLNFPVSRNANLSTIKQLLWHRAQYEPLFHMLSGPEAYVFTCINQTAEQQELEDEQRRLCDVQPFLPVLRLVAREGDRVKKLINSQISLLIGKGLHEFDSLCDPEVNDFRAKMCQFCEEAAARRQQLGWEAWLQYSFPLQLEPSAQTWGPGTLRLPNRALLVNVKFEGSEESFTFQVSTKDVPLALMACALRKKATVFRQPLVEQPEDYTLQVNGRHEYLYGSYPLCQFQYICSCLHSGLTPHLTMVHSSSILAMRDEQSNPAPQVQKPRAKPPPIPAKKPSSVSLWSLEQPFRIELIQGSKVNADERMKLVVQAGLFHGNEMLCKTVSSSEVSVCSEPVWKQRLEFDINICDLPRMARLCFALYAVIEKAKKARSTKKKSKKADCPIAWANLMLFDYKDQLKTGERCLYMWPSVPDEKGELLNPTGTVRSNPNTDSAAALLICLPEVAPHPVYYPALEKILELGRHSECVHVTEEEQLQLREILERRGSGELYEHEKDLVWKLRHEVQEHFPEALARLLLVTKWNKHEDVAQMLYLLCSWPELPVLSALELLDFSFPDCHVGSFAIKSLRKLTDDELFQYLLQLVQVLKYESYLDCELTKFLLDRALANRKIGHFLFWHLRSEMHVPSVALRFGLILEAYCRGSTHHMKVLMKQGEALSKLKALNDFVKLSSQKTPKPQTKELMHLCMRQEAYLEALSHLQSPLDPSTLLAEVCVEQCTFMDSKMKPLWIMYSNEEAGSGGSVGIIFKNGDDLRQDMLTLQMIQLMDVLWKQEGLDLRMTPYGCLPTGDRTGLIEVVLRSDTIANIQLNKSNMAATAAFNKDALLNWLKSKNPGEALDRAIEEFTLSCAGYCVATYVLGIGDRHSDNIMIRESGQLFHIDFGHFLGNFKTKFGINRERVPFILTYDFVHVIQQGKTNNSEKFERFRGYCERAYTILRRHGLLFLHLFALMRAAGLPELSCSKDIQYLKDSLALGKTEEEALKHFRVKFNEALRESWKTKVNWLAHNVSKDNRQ

[36] = tested on: UACC-257; experiment: Cytotoxicity against human UACC-257 cells assessed as growth inhibition at 10 uM after 48 hrs by sulforhodamine B assay; type: functional; conditions: read-out: GI
[37] = tested on: UO-31; experiment: Cytotoxicity against human UO-31 cells assessed as growth inhibition at 10 uM after 48 hrs by sulforhodamine B assay; type: functional; conditions: read-out: GI

SMILES: COC(=O)/C=C1\S/C(=N\N=C\c2ccc(OS(=O)(=O)C(F)(F)C(F)(F)C(F)(F)C(F)(F)C(F)(F)C(F)(F)C(F)(F)C(F)(F)F)cc2)N(c2ccccc2)C1=O
- inhibition of growth at 10 µM [1]: 22.1%
- inhibition of growth at 10 µM [2]: 27%
- inhibition of growth at 10 µM [3]: 25.1%
- inhibition of growth at 10 µM [4]: 22.1%
- inhibition of growth at 10 µM [5]: 10.5%
- inhibition of growth at 10 µM [6]: 19.3%
- inhibition of growth at 10 µM [7]: 22%
- inhibition of growth at 10 µM [8]: 12.1%
- inhibition of growth at 10 µM [9]: 36.3%
- inhibition of growth at 10 µM [10]: 37.8%
- inhibition of growth at 10 µM [11]: 36.2%
- inhibition of growth at 10 µM [12]: 16.9%
- inhibition of growth at 10 µM [13]: 13.5%
- inhibition of growth at 10 µM [14]: 14.1%
- inhibition of growth at 10 µM [15]: 26.6%
- inhibition of growth at 10 µM [16]: 12.9%
- inhibition of growth at 10 µM [17]: 11.6%
- inhibition of growth at 10 µM [18]: 20%
- inhibition of growth at 10 µM [19]: 39.7%
- inhibition of growth at 10 µM [20]: 11.2%
- inhibition of growth at 10 µM [21]: 15.2%
- inhibition of growth at 10 µM [22]: 34.1%

SMILES: O=S(=O)(Oc1ccc(/C=N/N=c2\scc(-c3ccccc3)n2-c2ccccc2)cc1)C(F)(F)C(F)(F)C(F)(F)C(F)(F)F
- inhibition of growth at 10 µM [20]: 65.5%
- pIC50 [23]: 6.14
- pIC50 [24]: 4.55
- selectivity ratio [25]: 39.2
- pIC50 [26]: 5.24
- Activity [27]: 42.38%
- Activity [28]: 49.27%
- Activity [29]: 7.61%
- Activity [30]: 43.12%
- Activity [31]: 6.18%
- Activity [32]: 21.88%
- Activity [33]: 14.32%
- pIC50 [34]: 5.64
- pIC50 [35]: 5.10

SMILES: O=S(=O)(Oc1ccc(/C=N/NC(=S)Nc2ccccc2)cc1)C(F)(F)C(F)(F)C(F)(F)C(F)(F)F
- inhibition of growth at 10 µM [36]: 14.3%
- inhibition of growth at 10 µM [37]: 11.8%
- inhibition of growth at 10 µM [20]: 14.2%
